Measurements taken from PMC4106781, “Efficacy of Selective PDE4D Negative Allosteric Modulators in the Object Retrieval Task in Female Cynomolgus Monkeys (Macaca fascicularis)” (PLoS ONE, 2014).

Key:
NHPs = conditions: cited from earlier work
[1] = system: female Cynomolgus monkeys; assay: Clinical observations (retching, emesis, salivation) during OR and PK studies; type: in vivo, Cynomolgus macaques (Macaca fascicularis); conditions: 0.03 mg/kg IM; one animal (5B09), 20 minutes post dose
Protocol: • Week 1: Animals were habituated to intramuscular injections daily using the ‘rolipram’ vehicle formulation (10% solutol (w/v), 90% saline vehicle in a 0.1 mL/Kg dose volume) Monday through Friday, and a single baseline OR trial evaluation was performed on Wednesday (OR4) (Figure 2A). Animals were dosed with vehicle 30 minutes prior to this behavioural evaluation. • Weeks 2 to 5: Evaluation of rolipram in OR task. Following the stable baseline performance establishment (OR1 – 4), all animals were administered the 3 doses of rolipram (0.003, 0.01 and 0.03 mg/Kg) or vehicle intramuscularly 30 minutes before evaluation on the OR task, every Wednesday through Weeks 2–5 (OR5-8). All animals were dosed with vehicle on the preceding Monday and Tuesday to keep them habituated to the injections and avoid any Pavlovian conditioning to any pro-emetic effects of treatment, although no OR testing was carried out on those days. Treatment was administered at approximately the same time each day and administered via the intramuscular route at a volume of 0.1 mL/kg. […]
Animals were closely monitored for the duration of the study, and were videotaped during task performance. Body weights were monitored weekly. Clinical observations were recorded prior to dose administration and after the completion of each OR task. […]

[2] = system: female Cynomolgus monkeys; assay: Object retrieval (OR) detour task; type: in vivo, Cynomolgus macaques (Macaca fascicularis)
Text: A total of n = 8 female Cynomolgus monkeys aged 4–6 years were trained in the OR task and were used for these studies, following a cross-over design. Animals were trained to ensure adequate and stable performance during the dosing studies. Animals were individually housed prior to the initiation of the study. Animals were habituated to the oral gavage method using positive reinforcement techniques for a minimum of 2 weeks prior to the initiation of OR testing to mitigate any adverse impact on behaviour. To ensure accurate dosing each individual was momentarily restrained in a ‘standing’ type primate chair to allow easy and gentle passage of the gavage tube. The oral doses were administered in a dose volume of 1.0 mL/Kg which was followed with 5 mL of purified water to ensure no residual compound formulation remained in the gavage tube. During dose habituation and the study the same study personnel administered the compounds and thus a non-stressful, familiar routine for the animals was achieved.
The OR task, [55] requires the subject to retrieve a food reward from a clear acrylic box (dimensions = 5×5×5 cm) with one open side which is positioned in front of the subject on a metal holder fixed to the outside of the home cage. The cube is presented to the subject with the open side facing left, right, or toward the monkey in a randomised set list of easy versus difficult trials. Food rewards (raisins or cubes of fruit pieces 1–2 cm^2) were placed on the outer edge, inner edge, line of sight (all easy), or deep within the box (difficult). Each test session consisted of 17 trials, with an initial Easy phase of 3 easy trials followed by a Random phase of 9 trials (4 difficult and 5 easy, presented randomly for each session), followed by a Difficult phase of 4 difficult trials and finally one final Easy Trial (Figure 2A). The final easy trial was included for reward purposes and although the number of attempts was recorded the data were not used for analysis. For successive test sessions, the subject was presented with the trials in an order exactly the reverse of the previous session (previous left side exposure became right side exposure and vice-versa). Individual trials within one OR session were terminated if there were no reaches or successful retrieval of the reward within 2 minutes by the subject. The acrylic box was cleaned between trials to minimize cues which may influence subsequent task performance through easier identification of the cube entrance.
Animals were habituated to the metal frame prior to introducing the OR cube. During training, the animals were exposed to the OR trials as depicted in Figure 2A for 4 occasions (twice a week- OR trial # T1-T4 – data not shown). Importantly, during this period of training, all animals acquired the rewards even after an incorrect first reach. OR evaluations were then subsequently conducted once per week to discourage learning and thus ensure no performance shift during the pharmacology study (Figure 2B). […]
Baseline performance was targeted to be an average, stable performance of >50% correct responses in the easy tasks, with less than 40% correct responses in the difficult tasks (Figure 2B). All animals evaluated during this phase met these criteria by the end of the training session, with the exception of one animal, which was a baseline ‘high performer’ on difficult trials (Animal 3939). […]

[3] = repeat measures ANOVA, dose group as factor

For `COc1ccc(C2CNC(=O)C2)cc1OC1CCCC1` (stereo not drawn) [rolipram, Rolipram], the retching (NHPs; 0.05 mg/kg IM, separate study, ref Maccine, personal communication) is listed as “all animals retching”, the emesis (NHPs; 0.06 mg/kg) is listed as “emesis” and the “emesis (monkeys affected)” value (NHPs; 0.1 mg/kg) is listed as 12 of 14. The adverse reactions [1] was “Retching and severe salivation”, the “mean percent correct first reaches, difficult trials (effect vs vehicle)” value ([2]; 0.01 mg/kg IM) was “significance was not observed” and the “mean percent correct first reaches, difficult trials” value ([2]; 0.03 mg/Kg IM, 30 min before OR, mean ± SEM, vehicle 22±8%) was 42±8%. For the same compound, the “mean percent correct first reach, easy level trials (effect of dosing)” value [2, 3] was “No significant improvement”, the “number of barrier reaches, difficult trials (effect of dosing)” value [2, 3] was “No significant change” and the “total number of reaches, difficult trials (effect of dosing)” value [2, 3] was “No significant change”.
